# Structures can show the parent of a compound that is named as a salt. Where two headings read alike, the source gives them in different places.
# How the values were obtained:
# [1] = tested on: fibrin-induced microglia activation; assay: Image-based assay of fibrin-induced microglia activation (HTS and dose response); type: cell-based, rat; conditions: for inhibition at 10 µM: Rattus norvegicus, Microglia, read-out: Fibrin % inhibition
# primary rat microglia [2] = assay: Cell toxicity (dead cells, size <150 μm2) in coated fibrin (cFib) assay;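 further: share of dead cells sized under 150 µm2 at 10 µM in fibrin-stimulated microglia HTS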
# primary rat microglia [3] = assay: Cell toxicity (dead cells, size <150 μm2) in LPS assay
# [4] = tested on: LPS-induced microglia activation; assay: Image-based assay of LPS-induced microglia activation (HTS and dose response); type: cell-based, rat; conditions: for inhibition at 10 µM: Rattus norvegicus, Microglia, read-out: LPS % inhibition
# [5] = tested on: fibrin- and LPS-induced microglia activation; assay: cells; type: cell-based, rat
# [6] = primary microglia HTS, fibrin stimulation, increased cell size (>800 μm^2) as marker of activation
# [7] = primary microglia HTS, fibrin stimulation, decreased size (<150 μm^2) as marker of toxicity
# [8] = primary microglia HTS, LPS stimulation, decreased size (<150 μm^2) as marker of toxicity
# [9] = primary microglia HTS, LPS stimulation, increased cell size (>800 μm^2) as marker of activation
# [10] = quadrant by fibrin and LPS inhibition in HTS of 1907 compounds
# [11] = primary HTS, 10 μM, fibrin-stimulated primary microglia
# [12] = primary HTS, 10 μM, fibrin assay, dead cells size <150 μm2
# [13] = primary HTS, 10 μM, LPS assay, dead cells size <150 μm2
# [14] = primary HTS, 10 μM, LPS-stimulated primary microglia
# [15] = 48 h, primary microglia HTS, LPS stimulation, increased cell size (>800 μm^2) as marker of activation
SMILES,"Fibrin % inhibition [1, 6] [%]",Fibrin % cell toxicity (primary rat microglia [2]; [7]) [%],LPS % cell toxicity (primary rat microglia [3]; [8]) [%],"LPS % inhibition [4, 9] [%]","Quadrant (FIG. 5b) [5, 10]","inhibition at 10 µM [1, 11] [%]",Fibrin % cell toxicity (primary rat microglia [2]; [12]) [%],LPS % cell toxicity (primary rat microglia [3]; [13]) [%],"inhibition at 10 µM [4, 14] [%]","Quadrant (FIG. 5b) ([5]; primary HTS, 10 μM)","Fibrin % inhibition [1, 11] [%]","LPS % inhibition [4, 14] [%]","inhibition at 10 µM [1, 6] [%]","inhibition at 10 µM [4, 15] [%]"
COc1ccc(CCN2CCC(Nc3nc4ccccc4n3Cc3ccc(F)cc3)CC2)cc1 [Astermizole],10,1,2,69,Q1,,,,,,,,,
CC(=O)OC[C@H]1O[C@@H]([S-])[C@H](OC(C)=O)[C@@H](OC(C)=O)[C@@H]1OC(C)=O.CCP(CC)CC.[Au+] [Auranofin],106,94,98,106,Q2,,,,,,,,,
CN(C)CCCOc1nn(Cc2ccccc2)c2ccccc12 [Benzydamine],,,,,,-16,1,1,30,Q4,,,,
OCc1ccccc1 [Benzyl Alcohol],,,,,,-54,0,0,11,Q4,,,,
CC1(C)S[C@@H]2[C@H](NC(=O)Cc3ccccc3)C(=O)N2[C@H]1C(=O)O [Benzylpenicillin],,,,,,29,1,0,42,Q4,,,,
C[N+](C)(CCOc1ccccc1)Cc1ccccc1.O=C([O-])c1cc2ccccc2cc1O [Bephenium Hydroxynapthoate],,,,,,,1,0,,Q4,25,19,,
COc1c2ccoc2cc2oc(=O)ccc12 [Bergapten],,,,,,-5,1,0,22,Q4,,,,
"O=C1CCO1 [Beta-propiolactone, Propiolactone]",,,,,,,1,0,,Q4,−12,8,,
CNCCc1ccccn1 [Betahistine],,,,,,-29,1,0,13,Q4,,,,
CC(=O)OCC(=O)[C@@]1(O)[C@@H](C)C[C@H]2[C@@H]3CCC4=CC(=O)C=C[C@]4(C)[C@@]3(F)[C@@H](O)C[C@@]21C [Betamethasone Acetate],,3,4,,Q2,,,,,,,,107,100
O=C(O)CCNC(=O)c1ccccc1 [Betamipron],,,,,,-6,1,0,14,Q4,,,,
CC(C)(Oc1ccc(CCNC(=O)c2ccc(Cl)cc2)cc1)C(=O)O [Bezafibrate],,,,,,-4,0,0,18,Q4,,,,
CC(C)(C)CC(C)(C)c1cc(Cc2cc(C(C)(C)CC(C)(C)C)cc(-n3nc4ccccc4n3)c2O)c(O)c(-n2nc3ccccc3n2)c1 [Bisoctrizole],,,,,,33,0,0,20,Q4,,,,
CC(C)NCC(O)COc1ccc(COCCOC(C)C)cc1 (centres unmarked) [Bisoprolol],,,,,,1,0,0,13,Q4,,,,
S=C=Nc1ccc(N=C=S)cc1 [Bitoscanate],,,,,,-9,1,1,3,Q4,,,,
Cc1cc2c(OCC(CNC(C)(C)C)OC(=O)c3ccccc3)cccc2[nH]1 (centres unmarked) [Bopindolol],,6,2,,Q2,,,,,,,,105,81
COc1ccccc1Oc1c(NS(=O)(=O)c2ccc(C(C)(C)C)cc2)nc(-c2ncccn2)nc1OCCO [Bosentan],,,,,,-14,1,0,10,Q4,,,,
CCN[C@H]1CN(CCCOC)S(=O)(=O)c2sc(S(N)(=O)=O)cc21 [Brinzolamide],,,,,,-3,0,0,5,Q4,,,,
Nc1c(CC(=O)O)cccc1C(=O)c1ccc(Br)cc1 [Bromfenac],,,,,,-12,1,0,0,Q4,,,,
CN(Cc1cc(Br)cc(Br)c1N)C1CCCCC1 [Bromhexine],,,,,,-16,0,0,11,Q4,,,,
O=C1c2ccccc2C(=O)C1c1ccc(Br)cc1 [Bromindione],,,,,,17,1,0,27,Q4,,,,
CC(C)C[C@H]1C(=O)N2CCC[C@H]2[C@]2(O)O[C@](NC(=O)[C@@H]3C=C4c5cccc6[nH]c(Br)c(c56)C[C@H]4N(C)C3)(C(C)C)C(=O)N12 [Bromocriptine Mesylate],,,,,,26,1,0,24,Q4,,,,
CN(C)CCC(c1ccc(Br)cc1)c1ccccn1 (centres unmarked) [Brompheniramine],,,,,,-20,1,−1,-7,Q4,,,,
O=[N+]([O-])C(Br)(CO)CO [Bronopol],,2,61,,Q1,,,,,,,,43,119
Cc1ccc2c(Br)cc(Br)c(OC(=O)c3ccccc3)c2n1 [Broxaldine],,,,,,19,1,0,6,Q4,,,,
Oc1c(Br)cc(Br)c2cccnc12 [Broxyquinoline],,,,,,-25,0,0,8,Q4,,,,
COc1cc2c(cc1OC)[C@@]13CCN4CC5=CCO[C@H]6CC(=O)N2[C@H]1[C@H]6[C@H]5C[C@H]43 [Brucine],,,,,,6,1,0,13,Q4,,,,
CCCC(=O)Nc1ncnc2c1ncn2[C@@H]1O[C@@H]2COP(=O)(O)O[C@H]2[C@H]1OC(=O)CCC [Bucladesine],,,,,,10,1,0,24,Q4,,,,
